What all share (format): cell-based
The target of assay [1] is T1, human GLP-1 receptor (GLP-1R) (Homo sapiens, UniProt P43220).
T1 construct: expressed in transfected cells
Briefly: cAMP assay, human GLP-1R cells. In short, it runs like this: (§1)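 Peptide-stimulated cAMP measured by two-step HTRF after a 30 min room-temperature incubation with receptor-expressing cells (hGLP-1R, hGIPR at 1×10^5 cells/ml; hGCGR at 2×10^5 cells/ml). Duplicate dilutions; EC50 from 4-parameter logistic fit of % Delta F.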
In general terms: cAMP levels reflect the balance of adenylyl cyclase and phosphodiesterase activity.

A further assay deals with T2, GLP-1R (INS1e assay) (Rattus norvegicus, UniProt P32301).
T2 construct: endogenous in cells; host or cells: INS-1E cells
T2 sequence (P32301 22-463): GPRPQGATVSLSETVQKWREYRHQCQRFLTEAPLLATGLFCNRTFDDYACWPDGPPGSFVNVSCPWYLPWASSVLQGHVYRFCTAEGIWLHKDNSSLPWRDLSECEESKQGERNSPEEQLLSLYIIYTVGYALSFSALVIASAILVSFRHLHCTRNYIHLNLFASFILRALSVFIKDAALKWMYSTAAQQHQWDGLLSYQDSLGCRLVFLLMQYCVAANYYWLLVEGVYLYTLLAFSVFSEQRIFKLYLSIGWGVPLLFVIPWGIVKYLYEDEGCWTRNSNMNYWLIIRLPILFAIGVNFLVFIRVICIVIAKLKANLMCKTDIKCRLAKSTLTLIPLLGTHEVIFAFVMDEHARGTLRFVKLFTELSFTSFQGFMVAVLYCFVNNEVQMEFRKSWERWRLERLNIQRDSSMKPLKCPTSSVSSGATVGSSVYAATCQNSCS
As to the kind of experiment: INS1e assay, cAMP activity at GLP-1R. The settings on record: mono-lipidated peptides. In short, it runs like this:
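cAMP was quantified by two-step HTRF, using anti-cAMP cryptate donor and cAMP-d2 acceptor, each diluted 1/20 in conjugate and lysis buffer. EC50 values of the synthetic peptides were derived from the cAMP readout.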

Assay [2] concerns the target T3, human glucose-dependent insulinotropic peptide receptor (GIPR) (Homo sapiens, UniProt P48546).
T3 construct: expressed in transfected cells
T3 sequence (P48546 22-466): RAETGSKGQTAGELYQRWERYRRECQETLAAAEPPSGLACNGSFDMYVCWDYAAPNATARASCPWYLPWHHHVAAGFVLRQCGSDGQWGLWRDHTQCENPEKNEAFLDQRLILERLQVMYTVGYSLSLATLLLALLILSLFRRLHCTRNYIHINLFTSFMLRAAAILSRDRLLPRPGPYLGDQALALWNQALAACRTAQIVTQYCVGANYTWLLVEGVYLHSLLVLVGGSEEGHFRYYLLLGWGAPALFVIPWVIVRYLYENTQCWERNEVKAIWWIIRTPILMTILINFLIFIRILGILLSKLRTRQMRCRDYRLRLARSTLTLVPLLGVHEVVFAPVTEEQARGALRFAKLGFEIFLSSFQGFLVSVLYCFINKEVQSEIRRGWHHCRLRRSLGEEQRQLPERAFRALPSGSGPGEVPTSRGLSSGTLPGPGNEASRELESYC
Briefly: cAMP assay, human GIPR cells. The settings on record: cAMP assay. The procedure, abridged:
as §1

Assay [3] has as its target T4, human glucagon receptor (GCGR) (Homo sapiens, UniProt P47871).
T4 construct: expressed in transfected cells
Briefly: cAMP assay, human GCGR cells. The settings on record: cAMP assay. The procedure, abridged: as §1

Setting [4] is: cAMP assay, first determination (n1), read-out: Primary assay EC50 GLP-1R n1.
Setting [5] is: cAMP assay, second determination (n2), read-out: Primary assay EC50 GLP-1R n2.
[6] abbreviates: mean of n1 and n2, read-out: Mean pM GLP-1R.
Setting [7] is: mean of n1 and n2, read-out: INS1e assay EC50 Mean pM GLP-1R.
The mark [8] stands for this setting: replicate n1, read-out: INS1e assay EC50 GLP-1R n1.
[9] abbreviates: replicate n2, read-out: INS1e assay EC50 GLP-1R n2.
Where [10] appears, read: first determination (n1), read-out: Primary assay EC50 GIP-R (n1).
[11] abbreviates: second determination (n2), read-out: Primary assay EC50 GIP-R (n2).
[12] abbreviates: first determination (n1), read-out: Primary assay EC50 Gluc-R (n1).
[13] abbreviates: second determination (n2), read-out: Primary assay EC50 Gluc-R (n2).

SMILES strings stand for the structures. Where two headings read alike, the source gives them in different places. Numbered stars: 1 amine (or outer) side, 2 acyl side, 3 side chain; on linkers, the order of the positions; unused ones are H or OH. Square brackets hold non-standard residues; d marks the D form. Side chains are listed from the residue outwards. Peptide text beside a SMILES is read from it. * marks the point of attachment. C18 diacid = O=C(O)CCCCCCCCCCCCCCCCC(=O)*; γGlu = O=C(O)[C@H](CCC(=O)[*:2])N[*:1]; Palmitoyl = CCCCCCCCCCCCCCCC(=O)*; αMeF = C[C@](N)(Cc1ccccc1)C(=O)O; αMeK = C[C@](N)(CCCCN)C(=O)O; αMeS = C[C@](N)(CO)C(=O)O; AEEA = NCCOCCOCC(=O)O; Aib = CC(C)(N)C(=O)O Bounds are passed on as bounds.

For five compounds, EC50 results are on record in patent US10414811B2, “Protease-resistant lipidated GLP-1 analogs” (MEDIMMUNE LIMITED, priority 2015, dated 2019).

T4 sequence (P47871 26-477): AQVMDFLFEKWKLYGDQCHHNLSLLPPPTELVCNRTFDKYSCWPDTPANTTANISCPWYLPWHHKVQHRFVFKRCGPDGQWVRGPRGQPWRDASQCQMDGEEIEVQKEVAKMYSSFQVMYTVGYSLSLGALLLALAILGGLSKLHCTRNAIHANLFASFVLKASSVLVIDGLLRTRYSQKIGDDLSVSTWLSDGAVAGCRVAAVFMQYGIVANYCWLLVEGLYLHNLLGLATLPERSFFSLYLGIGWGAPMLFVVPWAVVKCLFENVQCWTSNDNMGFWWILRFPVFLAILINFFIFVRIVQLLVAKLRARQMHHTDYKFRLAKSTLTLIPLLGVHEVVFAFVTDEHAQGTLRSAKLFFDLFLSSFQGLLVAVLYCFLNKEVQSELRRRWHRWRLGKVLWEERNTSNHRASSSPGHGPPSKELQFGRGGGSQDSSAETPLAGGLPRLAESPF
T1 sequence (P43220 24-463): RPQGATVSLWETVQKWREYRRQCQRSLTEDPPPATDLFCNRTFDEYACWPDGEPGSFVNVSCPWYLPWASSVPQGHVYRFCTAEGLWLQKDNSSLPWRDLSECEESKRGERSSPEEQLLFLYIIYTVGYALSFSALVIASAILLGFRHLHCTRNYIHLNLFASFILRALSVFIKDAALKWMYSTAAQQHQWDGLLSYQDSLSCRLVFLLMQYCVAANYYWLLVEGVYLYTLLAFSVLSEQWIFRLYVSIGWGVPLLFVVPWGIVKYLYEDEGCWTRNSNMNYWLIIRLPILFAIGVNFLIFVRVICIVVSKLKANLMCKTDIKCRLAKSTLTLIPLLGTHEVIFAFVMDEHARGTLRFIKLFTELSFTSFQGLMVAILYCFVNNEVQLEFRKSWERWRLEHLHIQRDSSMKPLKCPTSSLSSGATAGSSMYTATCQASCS

On to `CC[C@H](C)[C@H](NC(=O)[C@H](Cc1ccccc1)NC(=O)[C@H](CCC(=O)O)NC(=O)[C@H](CCC(=O)O)NC(=O)[C@H](C)NC(=O)[C@H](C)NC(=O)[C@H](CCC(=O)O)NC(=O)CNC(=O)[C@H](CCC(=O)O)NC(=O)[C@H](CC(C)C)NC(=O)[C@](C)(Cc1ccccc1)NC(=O)[C@H](CO)NC(=O)[C@](C)(CO)NC(=O)[C@@H](NC(=O)[C@H](CC(=O)O)NC(=O)[C@H](CO)NC(=O)[C@@H](NC(=O)[C@](C)(Cc1ccccc1)NC(=O)[C@H](CO)NC(=O)CNC(=O)[C@H](CCC(=O)O)NC(=O)C(C)(C)NC(=O)[C@@H](N)Cc1c[nH]cn1)[C@@H](C)O)C(C)C)C(=O)N[C@@H](CCCCNC(=O)COCCOCCNC(=O)COCCOCCNC(=O)CC[C@H](NC(=O)CCCCCCCCCCCCCCCCC(=O)O)C(=O)O)C(=O)N[C@@H](Cc1c[nH]c2ccccc12)C(=O)N[C@H](C(=O)N[C@H](C(=O)N[C@@H](CCC(=O)O)C(=O)NCC(=O)NCC(N)=O)C(C)C)C(C)C` [compound 66] (H-H[Aib]EGS[αMeF]TSDV[αMeS]S[αMeF]LEGEAAEEFIK([AEEA-AEEA-γGlu-C18 diacid])WVVEGG-NH2; N-terminus assumed), for which the EC50 stood at 203 pM in assay [1] (setting [4]); 97.9 pM in assay [1] (setting [5]); 150 pM in assay [1] (setting [6]); 42200 pM on GLP-1R (INS1e assay) (setting [7]); 45600 pM on GLP-1R (INS1e assay) (setting [8]); 38800 pM on GLP-1R (INS1e assay) (setting [9]). Further, the EC50 in assay [2] (setting [10]), in assay [2] (setting [11]), in assay [3] (setting [12]) and in assay [3] (setting [13]) was at least 25.1 nM in each case.

Take `CCCCCCCCCCCCCCCC(=O)N[C@@H](CCC(=O)NCCCC[C@H](NC(=O)CNC(=O)[C@H](CCC(=O)O)NC(=O)[C@H](CC(C)C)NC(=O)[C@](C)(Cc1ccccc1)NC(=O)[C@H](CO)NC(=O)[C@](C)(CO)NC(=O)[C@@H](NC(=O)[C@H](CC(=O)O)NC(=O)[C@H](CO)NC(=O)[C@@H](NC(=O)[C@](C)(Cc1ccccc1)NC(=O)[C@H](CO)NC(=O)CNC(=O)[C@H](CCC(=O)O)NC(=O)C(C)(C)NC(=O)[C@@H](N)Cc1c[nH]cn1)[C@@H](C)O)C(C)C)C(=O)N[C@@H](C)C(=O)N[C@@H](C)C(=O)N[C@@](C)(CCCCN)C(=O)N[C@@H](CCC(=O)O)C(=O)N[C@@](C)(Cc1ccccc1)C(=O)N[C@H](C(=O)N[C@@H](C)C(=O)N[C@@](C)(Cc1ccccc1)C(=O)N[C@H](C(=O)N[C@H](C(=O)N[C@@](C)(CCCCN)C(=O)NCC(=O)NCC(N)=O)C(C)C)C(C)C)[C@@H](C)CC)C(=O)O` [compound 83] (H-H[Aib]EGS[αMeF]TSDV[αMeS]S[αMeF]LEGK([γGlu-Palmitoyl])AA[αMeK]E[αMeF]IA[αMeF]VV[αMeK]GG-NH2): the EC50 amounted to 3.2 pM in assay [1] (setting [4]); 4 pM in assay [1] (setting [5]); 3.6 pM in assay [1] (setting [6]); 194 pM on GLP-1R (INS1e assay) (setting [7]); 137 pM at GLP-1R (INS1e assay) (setting [8]); 250 pM at GLP-1R (INS1e assay) (setting [9]). Moreover, the EC50 in assay [2] (setting [10]), in assay [2] (setting [11]), in assay [3] (setting [12]) and in assay [3] (setting [13]) was at least 28 nM throughout.

Regarding `CC[C@H](C)[C@H](NC(=O)[C@H](Cc1ccccc1)NC(=O)[C@H](CCC(=O)O)NC(=O)[C@H](C)NC(=O)[C@H](C)NC(=O)[C@H](C)NC(=O)[C@H](CCC(=O)O)NC(=O)CNC(=O)[C@H](CCC(=O)O)NC(=O)[C@H](CC(C)C)NC(=O)[C@](C)(Cc1ccccc1)NC(=O)[C@H](CO)NC(=O)[C@](C)(CO)NC(=O)[C@@H](NC(=O)[C@H](CC(=O)O)NC(=O)[C@H](CO)NC(=O)[C@@H](NC(=O)[C@](C)(Cc1ccccc1)NC(=O)[C@H](CO)NC(=O)CNC(=O)[C@H](CCC(=O)O)NC(=O)C(C)(C)NC(=O)[C@@H](N)Cc1c[nH]cn1)[C@@H](C)O)C(C)C)C(=O)N[C@@H](CCCCNC(=O)COCCOCCNC(=O)COCCOCCNC(=O)CC[C@H](NC(=O)CCCCCCCCCCCCCCCCC(=O)O)C(=O)O)C(=O)N[C@@H](Cc1c[nH]c2ccccc12)C(=O)N[C@H](C(=O)N[C@H](C(=O)N[C@@H](CCC(=O)O)C(=O)NCC(=O)NCC(N)=O)C(C)C)C(C)C` [compound 69] (H-H[Aib]EGS[αMeF]TSDV[αMeS]S[αMeF]LEGEAAAEFIK([AEEA-AEEA-γGlu-C18 diacid])WVVEGG-NH2; N-terminus assumed), the EC50 worked out at 66.1 pM in assay [1] (setting [4]); 39.9 pM in assay [1] (setting [5]); 53 pM in assay [1] (setting [6]); 22100 pM on GLP-1R (INS1e assay) (setting [7]); 19200 pM at GLP-1R (INS1e assay) (setting [8]); 25000 pM on GLP-1R (INS1e assay) (setting [9]). Further, the EC50 in assay [2] (setting [10]), in assay [2] (setting [11]), in assay [3] (setting [12]) and in assay [3] (setting [13]) was at least 25.5 nM throughout.

On to `CCCCCCCCCCCCCCCC(=O)N[C@@H](CCC(=O)NCCCC[C@H](NC(=O)[C@H](CO)NC(=O)[C@](C)(CO)NC(=O)[C@@H](NC(=O)[C@H](CC(=O)O)NC(=O)[C@H](CO)NC(=O)[C@@H](NC(=O)[C@](C)(Cc1ccccc1)NC(=O)[C@H](CO)NC(=O)CNC(=O)[C@H](CCC(=O)O)NC(=O)C(C)(C)NC(=O)[C@@H](N)Cc1c[nH]cn1)[C@@H](C)O)C(C)C)C(=O)N[C@@H](CC(C)C)C(=O)N[C@@H](CCC(=O)O)C(=O)NCC(=O)N[C@@H](CCC(=O)O)C(=O)N[C@@H](C)C(=O)N[C@@H](C)C(=O)N[C@@](C)(CCCCN)C(=O)N[C@@H](CCC(=O)O)C(=O)N[C@@](C)(Cc1ccccc1)C(=O)N[C@H](C(=O)N[C@@H](C)C(=O)N[C@@](C)(Cc1ccccc1)C(=O)N[C@H](C(=O)N[C@H](C(=O)N[C@@](C)(CCCCN)C(=O)NCC(=O)NCC(N)=O)C(C)C)C(C)C)[C@@H](C)CC)C(=O)O` [compound 87], for which the EC50 in assay [1] (setting [4]) is 1.6 pM; in assay [1] (setting [5]), 1.6 pM; in assay [1] (setting [6]), 1.6 pM; on GLP-1R (INS1e assay) (setting [7]), 53 pM; on GLP-1R (INS1e assay) (setting [8]) it was 43.6 pM; on GLP-1R (INS1e assay) (setting [9]), 62.2 pM. Moreover, the EC50 in assay [2] (setting [10]), in assay [2] (setting [11]), in assay [3] (setting [12]) and in assay [3] (setting [13]) was at least 28 nM each time.

In the case of `CCCCCCCCCCCC(=O)NCCOCCOCC(=O)NCCOCCOCC(=O)NCCOCCOCC(=O)NCCCC[C@H](NC(=O)[C@H](C)NC(=O)[C@H](C)NC(=O)[C@H](CCC(=O)O)NC(=O)CNC(=O)[C@H](CCC(=O)O)NC(=O)[C@H](CC(C)C)NC(=O)[C@](C)(Cc1ccccc1)NC(=O)[C@H](CO)NC(=O)[C@](C)(CO)NC(=O)[C@@H](NC(=O)[C@H](CC(=O)O)NC(=O)[C@H](CO)NC(=O)[C@@H](NC(=O)[C@](C)(Cc1ccccc1)NC(=O)[C@H](CO)NC(=O)CNC(=O)[C@H](CCC(=O)O)NC(=O)C(C)(C)NC(=O)[C@@H](N)Cc1c[nH]cn1)[C@@H](C)O)C(C)C)C(=O)N[C@@H](CCC(=O)O)C(=O)N[C@@](C)(Cc1ccccc1)C(=O)N[C@H](C(=O)N[C@@H](C)C(=O)N[C@@](C)(Cc1ccccc1)C(=O)N[C@H](C(=O)N[C@H](C(=O)N[C@@](C)(CCCCN)C(=O)NCC(=O)NCC(N)=O)C(C)C)C(C)C)[C@@H](C)CC` [compound 136], the EC50 in assay [1] (setting [4]) worked out at 3.5 pM; in assay [1] (setting [5]), 2.5 pM; in assay [1] (setting [6]) it was 3 pM; on GLP-1R (INS1e assay) (setting [7]), 37 pM; at GLP-1R (INS1e assay) (setting [8]), 52.6 pM; at GLP-1R (INS1e assay) (setting [9]), 21.5 pM. The EC50 in assay [2] (setting [10]), in assay [2] (setting [11]), in assay [3] (setting [12]) and in assay [3] (setting [13]) was at least 26 nM each time.
